Results on 2 molecules are retold here after patent US7563774B2, “Combination of FBPase inhibitors and antidiabetic agents useful for the treatment of diabetes” (Metabasis Therapeutics, Inc., priority 2000, dated 2009).

Molecules are shown by their SMILES.

The subject of one assay is C57BL/KsJ db/db mice. The assay is described as follows: Acute combination treatment of a biguanide and an FBPase inhibitor in db/db mice (Example DD). Format: in vivo, mouse. The method, then: Male C57BL/KsJ db/db mice were purchased at 5 weeks of age from Clea Japan, Inc. (Tokyo, Japan). The mice were maintained under standard vivarium conditions (24-26° C., 12-hour light cycle, 12-hour dark cycle) and received standard chow and water ad libitum. […] The treatment groups were control, compound J , metformin, and the combination of compound J and metformin. […] Food was removed after treatment. Blood glucose levels in tail vein samples were measured by means of a Glucoloader-F, an automatic glucose analyzer, (A&T Co., Ltd., Tokyo, Japan).

For a further assay, the system named is Goto-Kakizaki rats. The assay is described as follows: Acute combination treatment of an alpha glucosidase inhibitor and an FBPase inhibitor in Goto-Kakizaki rats (Example EE). Format: in vivo, rat. The method, then:
Goto-Kakizaki rats, an animal model of lean NIDDM, were purchased at 5 weeks of age from Charles River Japan, Inc. (Tokyo, Japan). The rats were maintained under standard vivarium conditions (24-26° C., 12-hour light cycle, 12-hour dark cycle) and received standard chow and water ad libitum. At 18 weeks of age, animals were divided into 4 groups (n=5/group). The treatment groups were control, Compound J, acarbose (Bayer, Japan), and the combination of Compound J and acarbose. All animals were given 1 g/kg of corn starch by oral gavage. […] Acarbose was administered orally at a dose of 1 mg/kg simultaneously with starch. Blood glucose levels in tail vein samples were measured by means of a Glucoloader-F, an automatic glucose analyzer, (A&T Co., Ltd., Tokyo, Japan).

Turning to `CN(C)C(=N)N=C(N)N` [Metformin, metformin, reference compound], the “Plasma Glucose, % of pretreatment value” in the assay with C57BL/KsJ db/db mice (after 2 hour) was “(67.7 +/− 1.9) %”; in the assay with C57BL/KsJ db/db mice (after 4 hour), “(66.4 +/− 3.1) %”; in the assay with C57BL/KsJ db/db mice (after 6 hour), “(67.7 +/− 4.1) %”; with C57BL/KsJ db/db mice (after 8 hour), “(79.1 +/− 5.6) %”; in the assay with C57BL/KsJ db/db mice (before (0 hour)) it was “(100.0 +/− 0.0) %”. The “Plasma Glucose” value in the assay on C57BL/KsJ db/db mice (after 2 hour, Compound J and/or metformin 150 mg/kg p.o.) is 347.0 ± 21.2 mg/dL; in the assay with C57BL/KsJ db/db mice (after 4 hour), 346.5 ± 34.6 mg/dL; with C57BL/KsJ db/db mice (after 6 hour), 348.3 ± 30.7 mg/dL; with C57BL/KsJ db/db mice (after 8 hour), 407.8 ± 40.0 mg/dL; in the assay with C57BL/KsJ db/db mice (before (0 hour)), 515.7 ± 37.0 mg/dL. For the same molecule, in the assay on C57BL/KsJ db/db mice (db/db mice, acute), the blood glucose lowering entry is “lowered blood glucose significantly relative to controls”.

For `C[C@H]1O[C@H](O[C@H]2[C@H](O)[C@@H](O)[C@@H](O[C@H]3[C@H](O)[C@@H](O)C(O)O[C@@H]3CO)O[C@@H]2CO)[C@H](O)[C@@H](O)[C@@H]1N[C@H]1C=C(CO)[C@@H](O)[C@H](O)[C@H]1O` (some centres unmarked) [Acarbose, acarbose, reference compound], the “Plasma Glucose, relative value (% of pre-treatment value)” value in the assay with Goto-Kakizaki rats (0 min) is listed as “(129.4 +/− 2.8) %”; in the assay with Goto-Kakizaki rats (30 min after starch), “(139.5 +/− 6.0) %”; in the assay with Goto-Kakizaki rats (60 min after starch), “(141.3 +/− 4.9) %”; in the assay on Goto-Kakizaki rats (120 min after starch), “(119.9 +/− 4.9) %”; in the assay with Goto-Kakizaki rats (240 min after starch), “(93.5 +/− 4.7) %”; with Goto-Kakizaki rats (−60 min) it was “(100.0 +/− 0.0) %”. Besides, the “Plasma Glucose” value in the assay with Goto-Kakizaki rats (0 min, Compound J 10 mg/kg p.o. at −60 min, acarbose 1 mg/kg p.o. with starch) worked out at 226.4 ± 5.3 mg/dL; with Goto-Kakizaki rats (30 min after starch) it was 243.8 ± 8.5 mg/dL; with Goto-Kakizaki rats (60 min after starch), 247.2 ± 8.2 mg/dL; in the assay with Goto-Kakizaki rats (120 min after starch), 209.4 ± 5.9 mg/dL; in the assay with Goto-Kakizaki rats (240 min after starch) it was 164.2 ± 10.7 mg/dL; in the assay on Goto-Kakizaki rats (−60 min relative to starch 1 g/kg), 175.4 ± 5.9 mg/dL.
